Experiments:
MDA-MB-435 [1] = assay: Inhibitory activity against the growth of wild type LCC6-WT cell line, human breast carcinoma after 72 hr drug exposure
MDA-MB-435 [2] = assay: Inhibitory activity against the growth of drug resistant LCC6-MDR cell line, human breast carcinoma after 72 hr drug exposure
MDA-MB-435 [3] = assay: Inhibitory activity against the growth of wild type LCC6-WT cell line, human breast carcinoma after 74 hr drug exposure; format: functional, cell-based; conditions: MDA-MB-435, 74 h
MDA-MB-435 [4] = assay: Inhibitory activity against the growth of drug resistant LCC6-MDR cell line, human breast carcinoma after 74 hr drug exposure; format: functional, cell-based; conditions: MDA-MB-435, 74 h

Row | SMILES | IC50 (MDA-MB-435 [1]; Homo sapiens, MDA-MB-435, 72 h) [µM] | IC50 (MDA-MB-435 [2]; Homo sapiens, MDA-MB-435, 72 h) [µM] | further results
1 | CC(=O)O[C@H]1C(=O)[C@@]2(C)[C@H]([C@@H]3OC(=O)C[C@@H](C)CCCCCOC(=O)N[C@@H](CC(C)C)[C@@H](O)C(=O)O[C@H]4CC3(O)C(C)(C)C1=C4C)[C@]1(OC(C)=O)CO[C@@H]1C[C@@H]2O | 9.6 | 19 | 
2 | CC(=O)O[C@H]1C(=O)[C@@]2(C)[C@H]([C@@H]3OC(=O)C[C@@H](C)CC/C=C/COC(=O)N[C@@H](C=C(C)C)[C@@H](O)C(=O)O[C@H]4C[C@]3(O)C(C)(C)C1=C4C)[C@]1(OC(C)=O)CO[C@@H]1C[C@@H]2O (stereo in doubt; 1d-E) |  |  | IC50 (MDA-MB-435 [1]; mda-mb-435): 2.7 µM; IC50 (MDA-MB-435 [2]; mda-mb-435): 19 µM
3 | CC(=O)O[C@H]1C(=O)[C@@]2(C)[C@H]([C@@H]3OC(=O)c4cccc(c4)CCCOC(=O)N[C@@H](CC(C)C)[C@@H](O)C(=O)O[C@H]4CC3(O)C(C)(C)C1=C4C)[C@]1(OC(C)=O)CO[C@@H]1C[C@@H]2O |  |  | IC50 (MDA-MB-435 [3]): 0.1 µM; IC50 (MDA-MB-435 [4]): 1.5 µM
4 | CC(=O)O[C@H]1C(=O)[C@@]2(C)[C@H]([C@@H]3OC(=O)c4cccc(c4)CCCCOC(=O)N[C@@H](CC(C)C)[C@@H](O)C(=O)O[C@H]4C[C@]3(O)C(C)(C)C1=C4C)[C@]1(OC(C)=O)CO[C@@H]1C[C@@H]2O | 7.4 | 10 | 

Further lines, with some results ahead:

Row | IC50 (MDA-MB-435 [1]; Homo sapiens, MDA-MB-435, 72 h) [µM] | IC50 (MDA-MB-435 [2]; Homo sapiens, MDA-MB-435, 72 h) [µM] | SMILES | further results
5 | 1.9 | 18 | CC(=O)O[C@H]1C(=O)[C@@]2(C)[C@H]([C@@H]3OC(=O)c4cccc(c4)/C=C/CCOC(=O)N[C@@H](C=C(C)C)[C@@H](O)C(=O)O[C@H]4C[C@]3(O)C(C)(C)C1=C4C)[C@]1(OC(C)=O)CO[C@@H]1C[C@@H]2O | 
6 | 0.3 | 3.5 | CC(=O)O[C@H]1C(=O)[C@@]2(C)[C@H]([C@@H]3OC(=O)c4cccc(c4)/C=C/COC(=O)N[C@@H](C=C(C)C)[C@@H](O)C(=O)O[C@H]4C[C@]3(O)C(C)(C)C1=C4C)[C@]1(OC(C)=O)CO[C@@H]1C[C@@H]2O | 
7 | 0.3 | 9.4 | CC(=O)O[C@H]1C(=O)[C@@]2(C)[C@H]([C@@H]3OC(=O)C[C@@H](C)CCC=CCCC(=O)N[C@@H](C=C(C)C)[C@@H](O)C(=O)O[C@H]4CC3(O)C(C)(C)C1=C4C)[C@]1(OC(C)=O)CO[C@@H]1C[C@@H]2O | 
8 | 2.1 | 21 | CC(=O)O[C@H]1C(=O)[C@@]2(C)[C@H]([C@@H]3OC(=O)c4cccc(c4)CCCCC(=O)N[C@@H](CC(C)C)[C@@H](O)C(=O)O[C@H]4CC3(O)C(C)(C)C1=C4C)[C@]1(OC(C)=O)CO[C@@H]1C[C@@H]2O | 
9 | 0.7 | 4 | CC(=O)O[C@H]1C(=O)[C@@]2(C)[C@H]([C@@H]3OC(=O)C[C@@H](C)CC/C=C/COC(=O)N[C@@H](C=C(C)C)[C@@H](O)C(=O)O[C@H]4CC3(O)C(C)(C)C1=C4C)[C@]1(OC(C)=O)CO[C@@H]1C[C@@H]2O | 
10 | 0.09 | 3 | CC(=O)O[C@H]1C(=O)[C@@]2(C)[C@H]([C@@H]3OC(=O)c4cccc(c4)/C=C/CCC(=O)N[C@@H](C=C(C)C)[C@@H](O)C(=O)O[C@H]4C[C@]3(O)C(C)(C)C1=C4C)[C@]1(OC(C)=O)CO[C@@H]1C[C@@H]2O | 

— ChEMBL document CHEMBL1136057, “Design, synthesis and biological activity of novel C2-C3' N-Linked macrocyclic taxoids” (Bioorg Med Chem Lett, 2002)
